BindingDB's records for patent US11896597 (Dizal (Jiangsu) Pharmaceutical, 2024)

Each molecule was assayed against Epidermal growth factor receptor (Homo sapiens, UniProt P00533) (assay: Potency Assessment EGFR (WT) and EGFR Mutants).
Sequence of Epidermal growth factor receptor (P00533 whole entry): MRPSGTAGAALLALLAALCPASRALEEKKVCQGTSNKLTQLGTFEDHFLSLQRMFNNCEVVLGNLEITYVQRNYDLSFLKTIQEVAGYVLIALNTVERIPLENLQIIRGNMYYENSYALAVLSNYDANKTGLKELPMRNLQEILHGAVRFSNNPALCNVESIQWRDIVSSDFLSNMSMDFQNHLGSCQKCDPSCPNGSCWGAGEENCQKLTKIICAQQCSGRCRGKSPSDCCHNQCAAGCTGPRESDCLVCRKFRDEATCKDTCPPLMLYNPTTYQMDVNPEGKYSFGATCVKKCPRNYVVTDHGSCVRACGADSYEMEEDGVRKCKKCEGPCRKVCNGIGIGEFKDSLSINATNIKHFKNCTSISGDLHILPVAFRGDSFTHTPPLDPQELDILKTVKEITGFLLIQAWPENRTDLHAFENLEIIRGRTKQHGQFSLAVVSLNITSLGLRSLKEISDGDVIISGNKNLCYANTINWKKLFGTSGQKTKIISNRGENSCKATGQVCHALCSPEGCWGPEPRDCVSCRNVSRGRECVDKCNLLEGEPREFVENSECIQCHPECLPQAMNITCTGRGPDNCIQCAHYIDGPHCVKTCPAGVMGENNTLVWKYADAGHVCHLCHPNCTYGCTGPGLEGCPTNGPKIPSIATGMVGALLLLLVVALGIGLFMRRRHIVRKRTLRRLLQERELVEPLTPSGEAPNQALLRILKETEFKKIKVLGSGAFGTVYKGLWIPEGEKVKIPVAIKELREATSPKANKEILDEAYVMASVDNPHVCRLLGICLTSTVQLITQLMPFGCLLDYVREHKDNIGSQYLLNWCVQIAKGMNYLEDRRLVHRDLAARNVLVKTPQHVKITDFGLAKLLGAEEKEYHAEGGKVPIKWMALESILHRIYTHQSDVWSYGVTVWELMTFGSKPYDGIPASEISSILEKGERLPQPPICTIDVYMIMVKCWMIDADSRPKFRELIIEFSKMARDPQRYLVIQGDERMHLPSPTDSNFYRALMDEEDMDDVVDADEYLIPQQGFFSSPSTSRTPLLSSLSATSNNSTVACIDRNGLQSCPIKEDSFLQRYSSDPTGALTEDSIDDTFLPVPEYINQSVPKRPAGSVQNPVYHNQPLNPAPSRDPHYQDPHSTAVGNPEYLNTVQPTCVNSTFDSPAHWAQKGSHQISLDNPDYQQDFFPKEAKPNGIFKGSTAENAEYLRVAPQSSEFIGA
Experimental: (§1) The next day, tested compounds at a series of concentrations were added into each individual well of the plates, and the plates were incubated for 4 h at 37 C. with 5% CO2. […] The assay is an electrochemiluminescent method for determining both phosphorylated and total EGFR of cells with an MSD SECTOR Imager and the ratio of p-EGFR/total EGFR can be generated by the machine. The Her2 (Y1248) phosphorylation level (activity) of cells in each well were measured with MSD Kit named Phospho-ErbB2 (Tyr1248) Assay Whole Cell Lysate Kit according to the manufacturer's instruction (MESO SCALE DISCOVERY, Cat #K151CLD-3). The assay is an electrochemiluminescent method (MESO SCALE DISCOVERY) for determining both phosphorylated and total Her2 of cells with an MSD SECTOR Imager and then the ratio of p-Her2/total Her2 can be generated by the machine.

Row | SMILES | IC50 [nM]
1 | C=CC(=O)Nc1cc(Nc2ncnc(Nc3cnc(C)cc3C(C)(C)O)n2)c(OC)cc1N(C)CCN(C)C [US11896597, Compound 6] | 103
2 | C=CC(=O)Nc1cc(Nc2ncnc(Nc3ccc(C)nc3C(C)(C)O)n2)c(OC)cc1N(C)CCN(C)C [US11896597, Compound 7] | 88.1
3 | C=CC(=O)Nc1cc(Nc2nccc(Nc3cc(Cl)c(F)cc3C(C)(C)O)n2)c(OC)cc1N(C)C[C@H]1C[C@H](C)CN1C [US11896597, Compound 90] | 357

Now from value to molecule:

Row | IC50 [nM] | SMILES
4 | 62.6 | C=CC(=O)Nc1cc(Nc2ncnc(Nc3ccccc3C3(O)COC3)n2)c(OC)cc1N(C)CCN(C)C [US11896597, Compound 10]
5 | 20.6 | C=CC(=O)Nc1cc(Nc2ncnc(Nc3ccc(C(F)(F)F)cc3C(C)(C)O)n2)c(OC)cc1N(C)CCN(C)C [US11896597, Compound 13]
6 | 104 | C=CC(=O)Nc1cc(Nc2ncnc(Nc3cc(F)c(F)cc3C(C)(C)O)n2)c(OC)cc1N(C)CCN1CCCCC1 [US11896597, Compound 24]

The molecules below were run against Epidermal growth factor receptor [T790M,L858R] (Homo sapiens, UniProt P00533, L858R/T790M) (assay: Potency Assessment EGFR (WT) and EGFR Mutants).
Sequence of Epidermal growth factor receptor [T790M,L858R] (P00533 25-1210 T790M/L858R limits assumed): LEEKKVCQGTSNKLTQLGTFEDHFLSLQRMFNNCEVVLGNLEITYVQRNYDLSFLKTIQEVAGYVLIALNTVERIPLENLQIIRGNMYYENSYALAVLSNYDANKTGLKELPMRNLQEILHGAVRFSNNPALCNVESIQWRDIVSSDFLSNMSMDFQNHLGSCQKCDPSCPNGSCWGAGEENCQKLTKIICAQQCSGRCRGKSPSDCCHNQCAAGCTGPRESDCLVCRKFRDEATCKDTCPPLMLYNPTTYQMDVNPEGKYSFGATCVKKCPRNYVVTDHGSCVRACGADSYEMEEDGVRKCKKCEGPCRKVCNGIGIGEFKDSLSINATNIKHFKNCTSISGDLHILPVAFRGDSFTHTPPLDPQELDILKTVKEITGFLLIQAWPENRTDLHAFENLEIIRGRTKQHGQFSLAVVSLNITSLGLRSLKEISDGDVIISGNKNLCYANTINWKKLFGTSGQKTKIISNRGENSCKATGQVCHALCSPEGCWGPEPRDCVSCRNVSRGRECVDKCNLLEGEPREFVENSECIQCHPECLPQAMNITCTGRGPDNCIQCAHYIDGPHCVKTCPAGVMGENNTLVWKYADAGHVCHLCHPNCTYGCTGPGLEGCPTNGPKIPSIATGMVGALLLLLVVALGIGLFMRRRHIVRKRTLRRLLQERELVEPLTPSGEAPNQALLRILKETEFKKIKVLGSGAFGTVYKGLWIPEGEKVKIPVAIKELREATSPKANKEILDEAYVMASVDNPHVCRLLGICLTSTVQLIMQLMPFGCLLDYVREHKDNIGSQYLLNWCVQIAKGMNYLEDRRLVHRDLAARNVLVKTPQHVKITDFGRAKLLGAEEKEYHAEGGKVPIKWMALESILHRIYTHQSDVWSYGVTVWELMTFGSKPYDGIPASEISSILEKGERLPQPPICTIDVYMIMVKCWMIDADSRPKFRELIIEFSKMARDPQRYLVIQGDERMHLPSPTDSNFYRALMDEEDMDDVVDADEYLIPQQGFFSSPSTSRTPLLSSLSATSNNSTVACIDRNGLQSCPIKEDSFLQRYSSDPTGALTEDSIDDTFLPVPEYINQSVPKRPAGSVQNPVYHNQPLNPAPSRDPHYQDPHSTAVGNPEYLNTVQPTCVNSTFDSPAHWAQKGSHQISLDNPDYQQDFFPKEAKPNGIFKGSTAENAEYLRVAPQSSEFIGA
Experimental: as §1

Row | SMILES | IC50 [nM]
7 | C=CC(=O)Nc1cc(Nc2ncnc(Nc3cnc(C)cc3C(C)(C)O)n2)c(OC)cc1N(C)CCN(C)C [US11896597, Compound 6] | 8.4
8 | C=CC(=O)Nc1cc(Nc2ncnc(Nc3ccc(C)nc3C(C)(C)O)n2)c(OC)cc1N(C)CCN(C)C [US11896597, Compound 7] | 1.7
9 | C=CC(=O)Nc1cc(Nc2nccc(Nc3cc(Cl)c(F)cc3C(C)(C)O)n2)c(OC)cc1N(C)C[C@H]1C[C@H](C)CN1C [US11896597, Compound 90] | 1.4

Other lines, results leading:

Row | IC50 [nM] | SMILES
10 | 2.6 | C=CC(=O)Nc1cc(Nc2ncnc(Nc3ccccc3C3(O)COC3)n2)c(OC)cc1N(C)CCN(C)C [US11896597, Compound 10]
11 | 1.1 | C=CC(=O)Nc1cc(Nc2ncnc(Nc3ccc(C(F)(F)F)cc3C(C)(C)O)n2)c(OC)cc1N(C)CCN(C)C [US11896597, Compound 13]
12 | 1 | C=CC(=O)Nc1cc(Nc2ncnc(Nc3cc(F)c(F)cc3C(C)(C)O)n2)c(OC)cc1N(C)CCN1CCCCC1 [US11896597, Compound 24]
